In article PMC12063423, “Identification of the methionine transporter MetQ in Streptococcus suis and its contribution to virulence and biofilm formation” (Veterinary Research, 2025):

Molecular target: T1, MetQ (SSU1577) (Streptococcus suis, UniProt A0A0H3N1C6)
T1 construct: gene SSUBM407_1651; mature protein aa 31-283 without signal peptide (1-29) and lipobox Cys30; codon-optimised, pET16b, E. coli BL21(DE3); full-length precursor 283 aa
Experiment: isothermal titration calorimetry, one-site model
Format: binding
Conditions: PBS pH 7.3, 25 °C; 38.8 µM protein in cell, 200 µM ligand in syringe

T1 sequence (A0A0H3N1C6 entry or part of it): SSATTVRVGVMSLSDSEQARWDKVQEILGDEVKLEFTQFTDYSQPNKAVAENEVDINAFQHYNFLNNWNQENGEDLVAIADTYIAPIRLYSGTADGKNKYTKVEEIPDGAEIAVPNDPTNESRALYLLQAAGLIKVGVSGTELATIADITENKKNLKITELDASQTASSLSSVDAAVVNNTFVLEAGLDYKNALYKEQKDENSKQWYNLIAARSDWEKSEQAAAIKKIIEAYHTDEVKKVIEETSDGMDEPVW

`CSCC[C@H](N)C(=O)O` [L-methionine] showed a Kd of 7.1 µM.
